From ChEMBL document CHEMBL4229410, “Facile construction of fused benzimidazole-isoquinolinones that induce cell-cycle arrest and apoptosis in colorectal cancer cells” (Bioorg Med Chem, 2018)
Activity calls are given as the source filed them. No cut-off for these calls is given here.

Assays:
[1] = biological target: T1, Dual specificity mitogen-activated protein kinase kinase 2 (Homo sapiens, UniProt P36507); test: Inhibition of full length human MEK2 (M1 to V400 residues) expressed in mammalian expression system assessed as residual activity at 5 uM by KINOMEscan assay relative to control
HT-29 [2] = test: Cell cycle arrest in human HT-29 cells assessed as accumulation at S-phase at 75 uM after 48 hrs by propidium iodide staining based flow cytometry (reference value: 37.82%); type: functional
[3] = biological target: Tyrosine-protein kinase receptor UFO (Homo sapiens, UniProt P30530); test: Binding affinity to human AXL (R497 to Y821 residues) expressed in bacterial expression system by KINOMEscan assay
[4] = biological target: Inhibitor of nuclear factor kappa-B kinase subunit alpha (Homo sapiens, UniProt O15111); test: Binding affinity to full length human IKKalpha (M1 to E745 residues) expressed in mammalian expression system by KINOMEscan assay
[5] = biological target: Cyclin-dependent kinase 3 (Homo sapiens, UniProt Q00526); test: Binding affinity to full length human CDK3 (M1 to H305 residues) expressed in bacterial expression system by KINOMEscan assay
[6] = biological target: Tyrosine-protein kinase JAK3 (Homo sapiens) (UniProt P52333); test: Inhibition of human JAK3 JH1 catalytic domain (I781 to S1124 residues) expressed in mammalian expression system assessed as residual activity at 5 uM by KINOMEscan assay relative to control
[7] = biological target: Serine/threonine-protein kinase Chk1 (Homo sapiens) (UniProt O14757); test: Inhibition of human CHEK1 (M1 to G289 residues) expressed in bacterial expression system assessed as residual activity at 5 uM by KINOMEscan assay relative to control
[8] = biological target: T2, Dual specificity mitogen-activated protein kinase kinase 1 (Homo sapiens, UniProt Q02750); test: Inhibition of full length human MEK1 (M1 to V393 residues) expressed in mammalian expression system assessed as residual activity at 5 uM by KINOMEscan assay relative to control
[9] = biological target: T3, Phosphatidylinositol 4,5-bisphosphate 3-kinase catalytic subunit gamma isoform (Homo sapiens, UniProt P48736); test: Inhibition of human PIK3CG (S144 to A1102 residues) expressed in mammalian expression system assessed as residual activity at 5 uM by KINOMEscan assay relative to control
Target sequence in this assay (P48736 whole entry, looked up, the tested form may be a part, canonical isoform): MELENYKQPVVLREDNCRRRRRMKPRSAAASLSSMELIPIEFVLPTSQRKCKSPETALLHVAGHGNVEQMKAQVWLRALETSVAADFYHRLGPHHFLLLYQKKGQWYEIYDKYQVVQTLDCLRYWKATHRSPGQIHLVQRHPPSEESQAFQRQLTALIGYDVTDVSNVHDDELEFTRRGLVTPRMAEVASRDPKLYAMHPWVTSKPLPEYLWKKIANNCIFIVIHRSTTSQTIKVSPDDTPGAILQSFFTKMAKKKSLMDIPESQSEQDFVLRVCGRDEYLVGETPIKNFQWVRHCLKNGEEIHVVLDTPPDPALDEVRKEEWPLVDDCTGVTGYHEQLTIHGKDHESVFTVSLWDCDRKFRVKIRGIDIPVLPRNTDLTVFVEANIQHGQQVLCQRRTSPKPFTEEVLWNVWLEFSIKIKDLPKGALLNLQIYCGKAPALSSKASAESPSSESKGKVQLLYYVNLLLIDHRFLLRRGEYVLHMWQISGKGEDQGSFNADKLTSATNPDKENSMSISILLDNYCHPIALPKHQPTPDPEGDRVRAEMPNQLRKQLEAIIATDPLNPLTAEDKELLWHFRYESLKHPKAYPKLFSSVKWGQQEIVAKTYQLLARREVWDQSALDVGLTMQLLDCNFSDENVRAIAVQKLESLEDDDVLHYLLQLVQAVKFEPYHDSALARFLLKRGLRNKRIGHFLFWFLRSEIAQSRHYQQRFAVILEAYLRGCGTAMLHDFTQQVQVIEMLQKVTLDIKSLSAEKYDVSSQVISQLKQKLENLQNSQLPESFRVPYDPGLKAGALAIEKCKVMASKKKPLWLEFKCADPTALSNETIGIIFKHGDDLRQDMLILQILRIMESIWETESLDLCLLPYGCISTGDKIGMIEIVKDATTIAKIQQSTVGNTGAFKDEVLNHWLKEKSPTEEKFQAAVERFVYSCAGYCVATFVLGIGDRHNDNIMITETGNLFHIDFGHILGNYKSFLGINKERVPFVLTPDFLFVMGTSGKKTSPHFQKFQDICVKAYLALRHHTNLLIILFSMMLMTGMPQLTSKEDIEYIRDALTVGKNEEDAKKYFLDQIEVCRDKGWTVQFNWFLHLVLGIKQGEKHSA

[10] = biological target: ALK tyrosine kinase receptor (Homo sapiens, UniProt Q9UM73); test: Inhibition of human ALK (I1088 to E1409 residues) expressed in mammalian expression system assessed as residual activity at 5 uM by KINOMEscan assay relative to control
[11] = biological target: Mitogen-activated protein kinase 11 (Homo sapiens, UniProt Q15759); test: Binding affinity to full length human p38beta (M1 to Q364 residues) expressed in bacterial expression system by KINOMEscan assay
HT-29 [12] = test: Cell cycle arrest in human HT-29 cells assessed as accumulation at G2-phase at 50 uM after 48 hrs by propidium iodide staining based flow cytometry (reference value: 15.45%); type: functional
Focal adhesion kinase 1 = Focal adhesion kinase 1 (Homo sapiens, UniProt Q05397); test: Inhibition of human FAK (D402 to R696 residues) expressed in bacterial expression system assessed as residual activity at 5 uM by KINOMEscan assay relative to control
[13] = biological target: 3-phosphoinositide-dependent protein kinase 1 (Homo sapiens, UniProt O15530); test: Binding affinity to full length human PDPK1 (M1 to Q556 residues) expressed in bacterial expression system by KINOMEscan assay
[14] = tested on: Serine/threonine-protein kinase B-raf (Homo sapiens), P15056 [V600E]; test: Inhibition of human BRAF (S429 to E741 residues) V600E mutant expressed in mammalian expression system assessed as residual activity at 5 uM by KINOMEscan assay relative to control
[15] = biological target: MAP kinase-interacting serine/threonine-protein kinase 2 (Homo sapiens, UniProt Q9HBH9); test: Binding affinity to human MKNK2 (G63 to S388 residues) expressed in mammalian expression system by KINOMEscan assay
[16] = biological target: TGF-beta receptor type-1 (Homo sapiens) (UniProt P36897); test: Inhibition of human TGFBR1 (D179 to M503 residues) expressed in bacterial expression system assessed as residual activity at 5 uM by KINOMEscan assay relative to control
Homo sapiens = organism: Homo sapiens; test: Inhibition of PI3K/AKT signaling pathway in human SW620 cells assessed as reduction in mTOR phosphorylation up to 75 uM after 48 hrs by Western blot analysis; type: cell-based
[17] = biological target: Serine/threonine-protein kinase ULK2 (Homo sapiens) (UniProt Q8IYT8); test: Inhibition of human ULK2 (M1 to S301 residues) expressed in mammalian expression system assessed as residual activity at 5 uM by KINOMEscan assay relative to control
Aurora kinase B = Aurora kinase B (Homo sapiens, UniProt Q96GD4); test: Inhibition of human AURKB (D25 to A303 residues) expressed in mammalian expression system assessed as residual activity at 5 uM by KINOMEscan assay relative to control
[18] = biological target: Serine/threonine-protein kinase pim-3 (Homo sapiens, UniProt Q86V86); test: Binding affinity to human PIM3 (G16 to A317 residues) expressed in bacterial expression system by KINOMEscan assay
[19] = biological target: Mitogen-activated protein kinase 10 (Homo sapiens, UniProt P53779); test: Inhibition of human JNK3 (V28 to Q422 residues) expressed in mammalian expression system assessed as residual activity at 5 uM by KINOMEscan assay relative to control
Insulin receptor = Insulin receptor (Homo sapiens, UniProt P06213); test: Inhibition of human INSR (P997 to E1318 residues) expressed in mammalian expression system assessed as residual activity at 5 uM by KINOMEscan assay relative to control
[20] = biological target: Serine/threonine-protein kinase PLK1 (Homo sapiens, UniProt P53350); test: Inhibition of human PLK1 (A33 to F325 residues) expressed in mammalian expression system assessed as residual activity at 5 uM by KINOMEscan assay relative to control
[21] = biological target: T1, Dual specificity mitogen-activated protein kinase kinase 2; test: Binding affinity to full length human MEK2 (M1 to V400 residues) expressed in mammalian expression system by KINOMEscan assay
[22] = biological target: T2, Dual specificity mitogen-activated protein kinase kinase 1; test: Binding affinity to full length human MEK1 (M1 to V393 residues) expressed in mammalian expression system by KINOMEscan assay
SW-620 = test: Inhibition of colony formation in human SW620 cells assessed as reduction in colony size at 25 to 75 uM treated for 48 hrs followed by compound washout and measured after 14 hrs by crystal violet staining based assay; type: functional, cell-based
[23] = biological target: T3, Phosphatidylinositol 4,5-bisphosphate 3-kinase catalytic subunit gamma isoform; test: Binding affinity to human PIK3CG (S144 to A1102 residues) expressed in mammalian expression system by KINOMEscan assay
Target sequence in this assay (P48736 whole entry, the tested form may be a part, canonical isoform): as the sequence (P48736 whole entry, looked up, the tested form may be a part, canonical isoform) above

T2 sequence (Q02750 whole entry, the tested form may be a part, canonical isoform): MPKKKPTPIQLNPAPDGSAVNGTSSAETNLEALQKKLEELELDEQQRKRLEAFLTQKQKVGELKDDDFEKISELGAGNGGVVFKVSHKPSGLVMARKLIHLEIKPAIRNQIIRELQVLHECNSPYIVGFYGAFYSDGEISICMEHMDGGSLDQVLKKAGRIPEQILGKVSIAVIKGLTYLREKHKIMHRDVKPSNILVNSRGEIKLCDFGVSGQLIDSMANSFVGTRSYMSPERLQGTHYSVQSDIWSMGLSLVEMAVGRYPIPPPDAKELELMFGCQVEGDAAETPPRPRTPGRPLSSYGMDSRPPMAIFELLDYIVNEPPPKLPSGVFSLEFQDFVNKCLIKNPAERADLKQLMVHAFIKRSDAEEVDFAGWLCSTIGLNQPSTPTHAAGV
T1 sequence (P36507 whole entry, the tested form may be a part): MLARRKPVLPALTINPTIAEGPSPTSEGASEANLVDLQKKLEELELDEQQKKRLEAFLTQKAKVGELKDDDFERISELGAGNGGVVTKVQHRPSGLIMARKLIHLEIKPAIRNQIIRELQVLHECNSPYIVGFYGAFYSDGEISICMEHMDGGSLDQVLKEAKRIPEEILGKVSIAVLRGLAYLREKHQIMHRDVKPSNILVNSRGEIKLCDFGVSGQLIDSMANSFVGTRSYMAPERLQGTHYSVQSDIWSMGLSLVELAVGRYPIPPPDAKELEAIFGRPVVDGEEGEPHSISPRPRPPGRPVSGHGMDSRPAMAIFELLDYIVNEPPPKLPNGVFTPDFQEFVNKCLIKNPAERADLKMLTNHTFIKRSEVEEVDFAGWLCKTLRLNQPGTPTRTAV
Chain of Serine/threonine-protein kinase ULK2 (Homo sapiens) (Q8IYT8 whole entry, the tested form may be a part): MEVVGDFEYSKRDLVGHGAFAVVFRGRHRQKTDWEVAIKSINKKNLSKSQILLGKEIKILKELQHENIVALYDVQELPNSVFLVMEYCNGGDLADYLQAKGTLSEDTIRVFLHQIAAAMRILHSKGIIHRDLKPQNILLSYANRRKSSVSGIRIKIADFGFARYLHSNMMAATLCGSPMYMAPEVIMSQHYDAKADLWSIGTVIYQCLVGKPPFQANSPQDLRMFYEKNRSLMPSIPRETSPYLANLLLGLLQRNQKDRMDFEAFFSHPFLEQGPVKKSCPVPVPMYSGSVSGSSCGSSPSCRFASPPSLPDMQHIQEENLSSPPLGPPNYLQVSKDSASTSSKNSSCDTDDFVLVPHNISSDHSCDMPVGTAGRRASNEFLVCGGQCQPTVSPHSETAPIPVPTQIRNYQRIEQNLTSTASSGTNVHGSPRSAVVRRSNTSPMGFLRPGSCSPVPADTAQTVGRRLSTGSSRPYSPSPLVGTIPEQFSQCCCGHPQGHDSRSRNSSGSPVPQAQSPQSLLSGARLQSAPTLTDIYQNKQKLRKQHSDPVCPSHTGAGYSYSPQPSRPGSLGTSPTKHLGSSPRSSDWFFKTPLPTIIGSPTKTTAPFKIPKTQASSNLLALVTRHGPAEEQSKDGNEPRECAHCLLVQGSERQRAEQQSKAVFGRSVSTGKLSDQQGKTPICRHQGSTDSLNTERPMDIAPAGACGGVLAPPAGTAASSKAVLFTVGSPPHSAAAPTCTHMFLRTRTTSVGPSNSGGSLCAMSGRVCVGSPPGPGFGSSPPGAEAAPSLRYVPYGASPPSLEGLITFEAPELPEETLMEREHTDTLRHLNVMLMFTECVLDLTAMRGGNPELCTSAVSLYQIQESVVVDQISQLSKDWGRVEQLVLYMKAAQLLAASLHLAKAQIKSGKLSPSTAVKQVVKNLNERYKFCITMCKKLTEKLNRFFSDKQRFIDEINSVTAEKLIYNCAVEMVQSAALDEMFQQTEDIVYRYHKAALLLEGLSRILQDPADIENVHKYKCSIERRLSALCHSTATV
Chain of Serine/threonine-protein kinase PLK1 (P53350 whole entry, the tested form may be a part): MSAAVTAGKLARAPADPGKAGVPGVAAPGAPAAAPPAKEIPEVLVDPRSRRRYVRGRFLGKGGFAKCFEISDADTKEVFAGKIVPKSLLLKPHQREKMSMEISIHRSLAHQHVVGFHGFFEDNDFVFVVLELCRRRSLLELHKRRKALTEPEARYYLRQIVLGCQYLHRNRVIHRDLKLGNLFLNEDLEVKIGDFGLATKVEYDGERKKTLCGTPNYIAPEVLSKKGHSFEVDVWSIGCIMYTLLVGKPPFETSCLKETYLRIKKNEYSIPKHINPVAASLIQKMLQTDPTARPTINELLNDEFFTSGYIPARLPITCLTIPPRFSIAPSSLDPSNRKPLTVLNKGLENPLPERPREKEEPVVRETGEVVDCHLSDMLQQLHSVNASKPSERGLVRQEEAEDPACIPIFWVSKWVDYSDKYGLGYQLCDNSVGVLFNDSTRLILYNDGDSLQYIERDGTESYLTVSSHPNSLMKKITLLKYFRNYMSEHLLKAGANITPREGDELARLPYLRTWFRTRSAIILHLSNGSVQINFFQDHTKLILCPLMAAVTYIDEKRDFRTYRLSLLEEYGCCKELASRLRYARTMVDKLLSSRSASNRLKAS
Chain of Mitogen-activated protein kinase 10 (P53779 whole entry, the tested form may be a part): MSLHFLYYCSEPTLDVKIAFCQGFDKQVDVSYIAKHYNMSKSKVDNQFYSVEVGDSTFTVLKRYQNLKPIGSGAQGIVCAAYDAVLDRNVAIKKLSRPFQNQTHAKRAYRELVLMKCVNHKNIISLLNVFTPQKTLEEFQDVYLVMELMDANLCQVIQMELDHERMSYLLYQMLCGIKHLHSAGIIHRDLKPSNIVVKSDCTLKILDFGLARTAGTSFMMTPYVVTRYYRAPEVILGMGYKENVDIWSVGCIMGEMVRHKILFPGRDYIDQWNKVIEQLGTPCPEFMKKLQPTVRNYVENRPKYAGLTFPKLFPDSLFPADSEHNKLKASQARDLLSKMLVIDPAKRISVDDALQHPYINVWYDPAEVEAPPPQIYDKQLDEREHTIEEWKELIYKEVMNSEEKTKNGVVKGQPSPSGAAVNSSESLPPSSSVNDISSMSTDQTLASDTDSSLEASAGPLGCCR
Chain of Inhibitor of nuclear factor kappa-B kinase subunit alpha (O15111 whole entry, the tested form may be a part): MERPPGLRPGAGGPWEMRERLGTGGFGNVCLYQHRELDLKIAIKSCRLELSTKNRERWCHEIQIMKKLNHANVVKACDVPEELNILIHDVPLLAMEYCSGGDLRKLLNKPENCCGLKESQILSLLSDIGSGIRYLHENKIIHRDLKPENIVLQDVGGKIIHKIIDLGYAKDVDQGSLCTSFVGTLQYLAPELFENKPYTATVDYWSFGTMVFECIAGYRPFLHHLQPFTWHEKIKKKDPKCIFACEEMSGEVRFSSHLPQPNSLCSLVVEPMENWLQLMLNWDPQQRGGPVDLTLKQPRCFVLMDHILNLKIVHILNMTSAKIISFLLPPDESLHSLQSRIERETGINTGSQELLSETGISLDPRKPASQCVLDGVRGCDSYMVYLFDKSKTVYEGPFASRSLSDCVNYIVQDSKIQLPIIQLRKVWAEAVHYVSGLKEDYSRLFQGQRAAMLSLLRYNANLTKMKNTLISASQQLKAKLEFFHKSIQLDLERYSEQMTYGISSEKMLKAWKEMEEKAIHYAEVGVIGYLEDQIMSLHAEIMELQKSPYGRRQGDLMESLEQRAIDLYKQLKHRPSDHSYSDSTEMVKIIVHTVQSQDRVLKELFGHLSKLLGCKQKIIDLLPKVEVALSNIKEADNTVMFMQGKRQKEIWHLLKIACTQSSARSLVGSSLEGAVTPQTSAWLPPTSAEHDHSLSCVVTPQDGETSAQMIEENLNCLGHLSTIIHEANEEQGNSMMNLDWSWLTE

**Q.** How did the Activity [1] turn out when `CC(C)CN(C(=O)c1cccnc1)c1c2ccccc2c(=O)n2c1[nH]c1ccccc12` was run?
**A.** 82%

**Q.** What about the Activity (HT-29 [2]) of the same compound?
**A.** 33.33%

**Q.** And the Kd [3]?
**A.** ≥ 5 µM

**Q.** What about the Kd [4] of the same compound?
**A.** ≥ 5 µM

**Q.** What about the Kd [5] of the same compound?
**A.** ≥ 5 µM

**Q.** What about the Activity [6] of the same compound?
**A.** 73%

**Q.** What about the Activity [7] of the same compound?
**A.** 83%

**Q.** And the Activity [8]?
**A.** 91%

**Q.** And the Activity [9]?
**A.** 100%

**Q.** What about the Activity [10] of the same compound?
**A.** 65%

**Q.** What about the Kd [11] of the same compound?
**A.** ≥ 5 µM

**Q.** And the Activity (HT-29 [12])?
**A.** 18.12%

**Q.** And the Activity (Focal adhesion kinase 1)?
**A.** 100%

**Q.** What about the Kd [13] of the same compound?
**A.** ≥ 5 µM

**Q.** What about the Activity [14] of the same compound?
**A.** 100%

**Q.** And the Kd [15]?
**A.** ≥ 5 µM

**Q.** What about the Activity [16] of the same compound?
**A.** 100%

**Q.** What about the inhibition (Homo sapiens) of the same compound?
**A.** Active

**Q.** What about the Activity [17] of the same compound?
**A.** 87%

**Q.** And the Activity (Aurora kinase B)?
**A.** 92%

**Q.** What about the Kd [18] of the same compound?
**A.** ≥ 5 µM

**Q.** And the Activity [19]?
**A.** 95%

**Q.** What about the Activity (Insulin receptor) of the same compound?
**A.** 100%

**Q.** And the Activity [20]?
**A.** 100%

**Q.** What about the Kd [21] of the same compound?
**A.** ≥ 5 µM

**Q.** And the Kd [22]?
**A.** ≥ 5 µM

**Q.** What about the inhibition (SW-620) of the same compound?
**A.** Active

**Q.** And the Kd [23]?
**A.** ≥ 5 µM
